Series [1] can be described thus: BIRDS characterization: pH and temperature sensitivity of non-exchangeable (and -NH) proton chemical shifts by 1H NMR. Type of series: physicochemical. The conditions noted are these: for T sensitivity, -NH proton: -NH proton (exchangeable), 298 K to 318 K. Here is the method: (§1) The synthesized complexes are characterized for water proton relaxivities with different concentrations of complexes, as well as their proton sensing (with BIRDS and CEST) and sodium sensing (with ^23Na-MRSI) properties on a Bruker AVANCE III HD 500 vertical-bore spectrometer (Bruker, Billerica, MA, USA) interfaced with Bruker TopSpin v3.2 software.
The chemical shifts of proton resonances are measured relative to the water resonance (4.7 ppm). Temperature and pH sensitive non-exchangeable proton resonances in each complex are chosen for BIRDS detection. The temperature and pH dependences of proton chemical shifts are fitted to second-order polynomial equations:
δ=a+b pH+cT+dpH^2+eT^2+f pHT Eq. 1
Where, the coefficients a-f are obtained from the fit. The relaxation times (T1 and T2) of these resonances are measured at 35 °C using typical inversion-recovery and spin-echo methods, respectively.

Series [2] can be described thus: 23Na-NMR sodium sensing (shiftability and broadening). It is filed as physicochemical. The conditions noted are these: 150 mM NaCl; for Shiftability (Sc): negative = downfield, positive = upfield from unshifted sodium signal.
Text: as §1
Sodium-23 (^23Na), which has 100% natural abundance, is also visible by magnetic resonance (I=3/2) and provides the second-strongest signal among biological ions after proton. […] Sodium (Na^+) concentration is normally low intracellularly (~10 mM) and high in blood and extracellular spaces (~150 mM), producing a strong transmembrane Nat gradient (ΔNa^+mem≈140 mM) and a weak transendothelial Na^+ gradient (ΔNa^+end≈0 mM). Distributions of sodium ion (Na^+) across biological membranes are tightly regulated, and thus variations of Nat across compartments often imply pathological states.
In vitro experiments are performed using concentric NMR tubes (spherical and cylindrical; Wilmad-LabGlass, Vineland, NJ, USA). One compartment (inner) contained 150 mM NaCl and the other (outer) contained the same but with varying amounts of transition metal complexes and 10% v/v ^2H2O to lock the spectrometer frequency using the ^2H2O signal. Each solution is pH-adjusted using HCl or KOH to give five different pH values. ^23Na-NMR spectra are collected on the same Bruker system as for ^1H NMR. […] Spectra are analyzed applying 10 Hz line broadening and manual zeroth- and first-order phasing. The chemical shift and line width of the shifted peak are measured using the “peakw” function on TopSpin.

The conditions of series [3]: literature value, cited from earlier work.
For series [4] the following is noted: reported value, cited from earlier work; for Shiftability (Sc): negative = downfield, positive = upfield from unshifted sodium signal.
Setting [5] is: 10 mM, pH 6.2-8.0, 298 K to 318 K, 11.7 T.
Where [6] appears, read: proton B, 10 mM, pH 6.2-8.0, 298 K to 318 K, 11.7 T.
The mark [7] stands for this setting: proton A (@56), comparator thulium complex.
Where [8] appears, read: proton B (@23), comparator thulium complex.
Where [9] appears, read: proton C (@-20), comparator thulium complex.

SMILES strings stand for the structures. Where two headings read alike, the source gives them in different places.

As for `O=P(O)(O)CN1CCN(CP(=O)(O)O)CCN(CP(=O)(O)O)CC1.[Co+2]` [CONOTP^4-], in series [1] (setting [5]), the “T sensitivity, non-exchangeable proton A” value is given as 0.948 ppm/° C and the “pH sensitivity, non-exchangeable proton A” value is 6.20 ppm/pH unit. In series [2], the “Broadening (βc)” value came out at 0.013 ppm/mM and the “Shiftability (Sc)” value is “+0.140 ppm/mM”.

With `O=C(CN1CCN(CC(=O)NCP(=O)(O)O)CCN(CC(=O)NCP(=O)(O)O)CCN(CC(=O)NCP(=O)(O)O)CC1)NCP(=O)(O)O.[Fe+2]` [FeDOTA-4AMP^6-], in series [1] (11.7 T), the “T sensitivity, -NH proton” value was found to be 0.158 ppm/° C. The “T sensitivity, non-exchangeable proton A” value in series [1] (setting [5]) is reported as 0.413 ppm/° C. In addition, the “T sensitivity, non-exchangeable proton E” value in series [1] (proton E, 10 mM, pH 6.2-8.0, 298 K to 318 K, 11.7 T) was -0.306 ppm/° C. Moreover, in series [2], the “Broadening (βc)” value was found to be 0.020 ppm/mM and the “Shiftability (Sc)” value is -0.477 ppm/mM.

With `O=P(O)(O)CN1CCN(CP(=O)(O)O)CCN(CP(=O)(O)O)CCN(CP(=O)(O)O)CC1.[Co+2]` [CODOTP^6-], in series [1] (setting [5]), the “T sensitivity, non-exchangeable proton A” value turned out to be 0.434 ppm/° C; the “pH sensitivity, non-exchangeable proton A” value was found to be 6.0 ppm/pH unit; the “T sensitivity, non-exchangeable proton C” value is on record as 0.186 ppm/° C. In addition, in series [1] (setting [6]), the “T sensitivity, non-exchangeable proton B” value is recorded as 0.234 ppm/° C and the “pH sensitivity, non-exchangeable proton B” value worked out at 1.42 ppm/pH unit. Further, in series [2], the “Broadening (βc)” value is recorded as 0.016 ppm/mM and the “Shiftability (Sc)” value was -0.207 ppm/mM.

In the case of `O=P(O)(O)CN1CCN(CP(=O)(O)O)CCN(CP(=O)(O)O)CCN(CP(=O)(O)O)CC1.[Fe+2]` [FeDOTP^6-], in series [1] (setting [5]), the “T sensitivity, non-exchangeable proton A” value is reported as 0.345 ppm/° C and the “T sensitivity, non-exchangeable proton C” value was determined as 0.045 ppm/° C. The “T sensitivity, non-exchangeable proton B” value in series [1] (setting [6]) is recorded as 0.130 ppm/° C. In series [2], the “Broadening (βc)” value is recorded as 0.023 ppm/mM and the “Shiftability (Sc)” value was “+0.688 ppm/mM”.

For `O=C(CN1CCN(CC(=O)NCP(=O)(O)O)CCN(CC(=O)NCP(=O)(O)O)CCN(CC(=O)NCP(=O)(O)O)CC1)NCP(=O)(O)O.[Tm+3]` [TmDOTA-4AMP^5-], in series [3] (proton H1), the “T sensitivity, non-exchangeable proton H1” value was 0.54 ppm/° C and the “pH sensitivity, non-exchangeable proton H1” value is given as 1.8 ppm/pH unit. Also, in series [3], the “T sensitivity, non-exchangeable proton H2” value is given as -0.24 ppm/° C; the “pH sensitivity, non-exchangeable proton H2” value was -0.63 ppm/pH unit; the “T sensitivity, non-exchangeable proton H3” value was -0.188 ppm/° C; the “pH sensitivity, non-exchangeable proton H3” value was -0.25 ppm/pH unit. In series [3], the “T sensitivity, non-exchangeable proton H6” value is on record as 0.45 ppm/° C and the “pH sensitivity, non-exchangeable proton H6” value is reported as 1.2 ppm/pH unit. Further, in series [3] (proton H4), the “T sensitivity, non-exchangeable proton H4” value is recorded as -1.49 ppm/° C and the “pH sensitivity, non-exchangeable proton H4” value is -3.9 ppm/pH unit. In series [3] (proton H8), the “T sensitivity, non-exchangeable proton H8” value is recorded as 0.170 ppm/° C and the “pH sensitivity, non-exchangeable proton H8” value was -4.0 ppm/pH unit.

On to `O=C(CN1CCN(CC(=O)NCP(=O)(O)O)CCN(CC(=O)NCP(=O)(O)O)CCN(CC(=O)NCP(=O)(O)O)CC1)NCP(=O)(O)O.[Co+2]` [CoDOTA-4AMP^6-], for which the “T sensitivity, -NH proton” value in series [1] (11.7 T) was 0.161 ppm/° C. For the same compound, in series [1] (setting [5]), the “T sensitivity, non-exchangeable proton A” value is 0.576 ppm/° C. Besides, in series [2], the “Broadening (βc)” value was 0.022 ppm/mM and the “Shiftability (Sc)” value is reported as -0.172 ppm/mM.

In the case of `O=P(O)(O)CN1CCN(CP(=O)(O)O)CCN(CP(=O)(O)O)CC1.[Tm+3]` [TmNOTP^3-], in series [1] (setting [7]), the “T sensitivity, non-exchangeable proton A (@56)” value is reported as 0.351 ppm/° C and the “pH sensitivity, non-exchangeable proton A (@56)” value is reported as -2.58 ppm/pH unit. Further, in series [1] (setting [8]), the “T sensitivity, non-exchangeable proton B (@23)” value is 0.140 ppm/° C and the “pH sensitivity, non-exchangeable proton B (@23)” value is -0.56 ppm/pH unit. In series [1] (setting [9]), the “T sensitivity, non-exchangeable proton C (@-20)” value is -0.250 ppm/° C and the “pH sensitivity, non-exchangeable proton C (@-20)” value was found to be 1.88 ppm/pH unit. For the same compound, in series [4], the “Broadening (βc)” value was 0.018 ppm/mM and the “Shiftability (Sc)” value was -0.568 ppm/mM.

For `O=P(O)(O)CN1CCN(CP(=O)(O)O)CCN(CP(=O)(O)O)CCN(CP(=O)(O)O)CC1.[Gd+3]` [GdDOTP^5-], in series [4], the “Broadening (βc)” value is recorded as 0.036 ppm/mM and the “Shiftability (Sc)” value is listed as -0.040 ppm/mM.

As for `O=P(O)(O)CN1CCN(CP(=O)(O)O)CCN(CP(=O)(O)O)CC1.[Fe+2]` [FeNOTP^4-], the “T sensitivity, non-exchangeable proton A” value in series [1] (setting [5]) came to 0.240 ppm/° C. Besides, in series [1] (setting [6]), the “T sensitivity, non-exchangeable proton B” value worked out at 0.149 ppm/° C. For the same compound, in series [2], the “Broadening (βc)” value is listed as 0.015 ppm/mM and the “Shiftability (Sc)” value is “+0.318 ppm/mM”.

Turning to `O=P(O)(O)CN1CCN(CP(=O)(O)O)CCN(CP(=O)(O)O)CCN(CP(=O)(O)O)CC1.[Tm+3]` [TmDOTP^5-], in series [3], the “T sensitivity, non-exchangeable proton H2” value is given as -0.6 ppm/° C; the “pH sensitivity, non-exchangeable proton H2” value was 4.2 ppm/pH unit; the “T sensitivity, non-exchangeable proton H3” value is recorded as -0.5 ppm/° C; the “pH sensitivity, non-exchangeable proton H3” value is given as 3.6 ppm/pH unit. Also, in series [3], the “T sensitivity, non-exchangeable proton H6” value is on record as 1.1 ppm/° C and the “pH sensitivity, non-exchangeable proton H6” value is listed as -3.9 ppm/pH unit. Also, in series [4], the “Broadening (βc)” value is listed as 0.042 ppm/mM and the “Shiftability (Sc)” value was -2.03 ppm/mM.

Regarding `O=P(O)(O)CN1CCN(CP(=O)(O)O)CCN(CP(=O)(O)O)CC1.[Gd+3]` [GdNOTP^3-], in series [4], the “Broadening (βc)” value is 0.0117 ppm/mM and the “Shiftability (Sc)” value is -0.0435 ppm/mM.

(Values after patent US20260356869A1, “TRANSITION METAL COMPLEXES FOR MRI APPLICATIONS AND METHODS OF USE” (Yale University, priority 2022, published 2026).)
